Assay results taken from ChEMBL document CHEMBL2029336, “S-Adenosylhomocysteine hydrolase of the protozoan parasite Trichomonas vaginalis: potent inhibitory activity of 9-(2-deoxy-2-fluoro-β,D-arabinofuranosyl)adenine” (Bioorg Med Chem Lett, 2012).
Calls of active or inactive are those of the source. The calls are words filed in the database; no cut-off is given here.

Legend:
Trichomonas vaginalis [1] = assay: Growth inhibition of Trichomonas vaginalis T1 at 100 uM after 24 hrs by hemocytometry; format: functional; conditions: for inhibition of growth at 100 µM: T1, 24 h, read-out: GI
Trichomonas vaginalis [2] = assay: Growth inhibition of Trichomonas vaginalis T1 after 24 hrs by hemocytometry; format: functional, organism-based; conditions: T1, 24 h
Trichomonas vaginalis [3] = assay: Growth inhibition of mtronidazole-resistant Trichomonas vaginalis after 24 hrs by hemocytometry; format: functional, organism-based
CHO-K1 = assay: Cytotoxicity against CHOK1 cells assessed as morphological changes at 100 uM after 48 hrs by microscopy; format: cell-based, Cricetulus griseus; conditions: chinese hamster, cho-k1, 48 h

| SMILES | inhibition of growth at 100 µM (Trichomonas vaginalis [1]) [%] | also measured |
| --- | --- | --- |
| Nc1c2ncn([C@@H]3O[C@H](CO)[C@@H](O)[C@H]3O)c2nc[n+]1[O-] | 37.7 | – |
| CCCSS[C@H]1[C@H](O)[C@@H](CO)O[C@H]1n1cnc2c(N)nc(N)nc21 | 6.2 | – |
| CC(C)CSC[C@H]1O[C@@H](n2cnc3c(N)ncnc32)[C@H](O)[C@@H]1O | 44.9 | – |
| Nc1ncnc2c1ncn2[C@@H]1O[C@H](CSc2ccc(Cl)cc2)[C@@H](O)[C@H]1O | 51.2 | – |
| Nc1ncnc2c1ncn2[C@@H]1O[C@H](CO)[C@@H](O)[C@@H]1Cl | 100 | IC50 (Trichomonas vaginalis [2]): 5.93 µM |
| O=C(Nc1ncnc2c1ncn2[C@@H]1O[C@H](CCl)[C@@H](O)[C@H]1O)c1ccccc1 | 40.7 | – |
| Nc1ncnc2c1ncn2[C@@H]1O[C@H](CCl)[C@@H](O)[C@H]1O | 88.9 | IC50 (Trichomonas vaginalis [2]): 53.3 µM |
| O=c1[nH]cnc2c1ncn2[C@@H]1O[C@H](CO)[C@@H](O)[C@H]1O [INOSINE] | 19.2 | – |
| COc1ccc(SC[C@H]2O[C@@H](n3ccc(=O)[nH]c3=O)[C@H](O)[C@@H]2O)cc1 | – | growth inhibition (GI) (Trichomonas vaginalis [1]): inactive |
| Nc1ncnc2c1ncn2[C@@H]1O[C@H](CO)C[C@H]1O [CORDYCEPIN] | 94.1 | – |
| Nc1ncnc2c1ncn2[C@@H]1O[C@H](CO)[C@H](F)[C@H]1O | 57.5 | – |
| N[C@@H]1[C@H](O)[C@@H](CO)O[C@H]1n1ccc(=O)[nH]c1=O | 18.4 | – |
| [N-]=[N+]=NC[C@H]1O[C@@H](n2cnc3c(N)ncnc32)[C@H](O)[C@@H]1O | 85.2 | IC50 (Trichomonas vaginalis [2]): 48.5 µM |
| O=c1ccn([C@@H]2O[C@H](CCl)[C@@H](O)[C@H]2O)c(=O)[nH]1 | – | growth inhibition (GI) (Trichomonas vaginalis [1]): inactive |
| CCCSS[C@@H]1[C@H](O)[C@@H](CO)O[C@H]1n1cnc2c(N)ncnc21 | 43 | – |
| O=c1ccn([C@@H]2O[C@H](C=C(Br)Br)[C@@H](O)[C@H]2O)c(=O)[nH]1 | 12.2 | – |
| Cc1ncc([N+](=O)[O-])n1CCO [METRONIDAZOLE] | – | IC50 (Trichomonas vaginalis [3]): 0.21 µM |

| SMILES | inhibition of growth at 100 µM (Trichomonas vaginalis [1]) [%] | also measured |
| --- | --- | --- |
| O=c1ccn([C@H]2C[C@H](O)[C@@H](CI)O2)c(=O)[nH]1 | 21.2 | – |
| COc1ccc(SC[C@H]2O[C@@H](n3cnc4c(N)ncnc43)[C@H](O)[C@@H]2O)cc1 | 58 | – |
| Nc1ncnc2c1ncn2[C@@H]1O[C@H](CO)[C@H]2O[C@H]21 | 43 | – |
| Nc1ncnc2c1ncn2[C@@H]1O[C@H](CO)[C@@H](O)[C@H]1O [ADENOSINE] | 49.7 | – |
| O=c1ccn([C@@H]2O[C@H](CSc3ccccc3)[C@@H](O)[C@H]2O)c(=O)[nH]1 | – | growth inhibition (GI) (Trichomonas vaginalis [1]): inactive |
| Nc1nc(N)c2ncn([C@@H]3O[C@H](CO)[C@@H](O)[C@H]3O)c2n1 | 100 | IC50 (Trichomonas vaginalis [2]): 29.5 µM |
| Nc1ncnc2c1ncn2[C@H]1C[C@H](O)[C@@H](CO)O1 [DEOXYADENOSINE] | 48.7 | – |
| CCCSS[C@H]1[C@H](O)[C@@H](CO)O[C@H]1n1cnc2c(N)ncnc21 | 66.8 | – |
| Nc1ncnc2c1ncn2[C@@H]1O[C@H](CO)[C@@H](O)[C@@H]1O [VIDARABINE] | 100 | IC50 (Trichomonas vaginalis [2]): 3.6 µM |
| NC[C@H]1O[C@@H](n2cnc3c(NC(=O)c4ccccc4)ncnc32)[C@H](O)[C@@H]1O | 21.7 | – |
| Nc1ncnc2c1ncn2[C@@H]1O[C@H](CO)[C@@H](O)[C@@H]1F | 99.6 | IC50 (Trichomonas vaginalis [2]): 0.09 µM; Activity (CHO-K1): Non-toxic; IC50 (Trichomonas vaginalis [3]): 100 µM |
| Nc1ncnc2c1ncn2[C@@H]1O[C@H](CO)[C@@H](O)[C@H]1F [2'-BETA-FLUORO-2',3'-DEOXYADENOSINE] | 100 | IC50 (Trichomonas vaginalis [2]): 2.94 µM |
| NC[C@H]1O[C@@H](n2cnc3c(N)ncnc32)[C@H](O)[C@@H]1O | 24.1 | – |
| Nc1ncnc2c1ncn2[C@@H]1O[C@H](COC(=O)c2ccccc2)[C@@H](O)[C@H]1O | 13.5 | – |
| CC(=O)O[C@H]1[C@@H](O)[C@H](n2ccc(=O)[nH]c2=O)O[C@@H]1CO | 22.8 | – |
| Nc1ncnc2c1ncn2[C@@H]1O[C@H](CO)[C@@H](F)[C@H]1O | 100 | IC50 (Trichomonas vaginalis [2]): 1.61 µM |
